Target: T1, Proteasome Macropain subunit MB1 (Homo sapiens, UniProt P28074)
T1 sequence (P28074 whole entry): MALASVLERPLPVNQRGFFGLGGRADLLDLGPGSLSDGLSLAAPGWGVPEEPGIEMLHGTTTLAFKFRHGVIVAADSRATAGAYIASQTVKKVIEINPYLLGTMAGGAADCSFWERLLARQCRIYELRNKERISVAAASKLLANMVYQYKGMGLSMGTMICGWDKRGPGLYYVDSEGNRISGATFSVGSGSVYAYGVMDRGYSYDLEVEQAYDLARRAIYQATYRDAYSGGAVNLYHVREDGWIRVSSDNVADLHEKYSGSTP
Experiment: Determination of Beta5 Activity: Measurement of Beta5 inhibition is performed in 384 well format based on fluorescence intensity assay.Purified human constitutive proteasome (1.25 nM) and serial diluted compounds in DMSO (range of concentrations from 30 μM to […]) or controls are incubated for 20 minutes at 25° C. in assay buffer containing 50 mM Tris pH 7.4, 0.03% SDS, 1 mM EDTA and 1% DMSO. The reaction is initiated by the addition of the fluorogenic peptide substrate, Suc-LLVY-AMC (Bachem 1-1395), at a concentration of 40 μM. After 60 minutes of incubation at 37° C., fluorescence intensity is measured at λex=350 nm and λem=450 nm with a fluorescence reader (Perkin Elmer Envision reader or equivalent).

IC50 [nM]	Structure (SMILES)
< 50	Cc1ccc(OCCC(=O)N[C@@H](Cc2coc3ccccc23)B(O)O)cc1
> 5000	CCO[C@@H](C(=O)N[C@@H](Cc1coc2ccccc12)B(O)O)c1ccccc1

Source: ChEMBL document CHEMBL5726955, “Substituted boronic acids and boronate esters as immunoproteasome inhibitors” (2019)
